Values quoted from earlier work as cited in EP4233849A1, “PHARMACEUTICAL COMPOSITION COMPRISING POMALIDOMIDE” (KRKA, d.d., Novo mesto, priority 2022, dated 2023).
Read-outs that look alike come from different tables or passages of the source.

How the values were obtained:
[1] = according to BCS classification
[2] = accelerated and room temperature conditions; anhydrous lactose, microcrystalline cellulose, anhydrous dibasic calcium phosphate, croscarmellose sodium, magnesium stearate

## Nc1cccc2c1C(=O)N(C1CCC(=O)NC1=O)C2=O (racemic) [Pomalidomide, (RS) 4-Amino-2-(2,6-dioxopiperidin-3-yl)isoindole-1,3-dione]
In absolute ethanol, ethyl acetate, heptane, methanol, 2-propanol and toluene
  solubility: very slightly soluble
In acetone, acetonitrile, methylene chloride, methyl ethyl ketone and tetrahydrofuran
  solubility: slightly soluble
In water
  solubility: practically insoluble
[1]
  solubility: low solubility
[2]
  stability in the presence of particular excipients: instability problems
